In the NIST ThermoML archive (doi:10.1021/je0504156):
± gives the expanded uncertainty stated by the source.

Tests used:
[1] = 101 kPa, Liquid
[2] = xn = mol fraction of the nth substance listed; conditions: 101 kPa, Liquid

OCCO [1,2-ethanediol]
[1]
Conditions | mass density [kg/m3] | viscosity [mPa·s]
308.15 K | 1101.88 ± 0.66 | 11.19 ± 0.21
313.15 K | 1098.33 ± 0.65 | 9.444 ± 0.18
318.15 K | 1094.75 ± 0.64 | 7.972 ± 0.16
323.15 K | 1091.16 ± 0.63 | 6.794 ± 0.14
333.15 K | 1083.94 ± 0.61 | 5.065 ± 0.11
343.15 K | 1074.53 ± 4 | 3.879 ± 0.086
353.15 K | 1069.72 ± 0.57 | 3.058 ± 0.069

OCCO [1,2-ethanediol] + Cc1cccc(O)c1
[2], x2 = 0
Conditions | mass density [kg/m3] | viscosity [mPa·s]
308.15 K | 1101.88 ± 0.66 | 11.19 ± 0.21
313.15 K | 1098.33 ± 0.65 | 9.444 ± 0.18
318.15 K | 1094.75 ± 0.64 | 7.972 ± 0.16
323.15 K | 1091.16 ± 0.63 | 6.794 ± 0.14
333.15 K | 1083.94 ± 0.61 | 5.065 ± 0.11
343.15 K | 1074.53 ± 4 | 3.879 ± 0.086
353.15 K | 1069.72 ± 0.57 | 3.058 ± 0.069

Cc1cccc(O)c1 [3-methylphenol]
[1]
Conditions | mass density [kg/m3] | viscosity [mPa·s]
308.15 K | 1021.64 ± 0.61 | 7.701 ± 0.15
313.15 K | 1017.63 ± 0.6 | 6.12 ± 0.13
318.15 K | 1013.6 ± 0.59 | 5.022 ± 0.11
323.15 K | 1009.56 ± 0.58 | 4.158 ± 0.094
328.15 K | 1005.93 ± 0.57 | 3.518 ± 0.08
333.15 K | 1001.44 ± 0.57 | 2.98 ± 0.068
343.15 K | 991.33 ± 4 | 2.231 ± 0.052
353.15 K | 985.42 ± 0.58 | 1.759 ± 0.042

Cc1cccc(O)c1 [3-methylphenol] + CO
[2]
Conditions | mass density, 308.15 K [kg/m3] | mass density, 313.15 K [kg/m3] | mass density, 318.15 K [kg/m3] | mass density, 323.15 K [kg/m3] | mass density, 328.15 K [kg/m3] | viscosity, 308.15 K [mPa·s] | viscosity, 313.15 K [mPa·s] | viscosity, 318.15 K [mPa·s] | viscosity, 323.15 K [mPa·s] | viscosity, 328.15 K [mPa·s]
x1 = 0.0999 | 838.66 ± 0.79 | 834.09 ± 0.81 | 829.48 ± 0.82 | 824.84 ± 0.83 | 820.44 ± 0.85 | 0.725 ± 0.019 | 0.676 ± 0.018 | 0.621 ± 0.017 | 0.588 ± 0.016 | 0.533 ± 0.015
x1 = 0.1999 | 880.62 ± 0.68 | 876.22 ± 0.69 | 871.78 ± 0.7 | 867.32 ± 0.72 | 863.14 ± 0.73 | 0.976 ± 0.024 | 0.906 ± 0.023 | 0.835 ± 0.021 | 0.783 ± 0.02 | 0.72 ± 0.019
x1 = 0.2998 | 914.11 ± 0.6 | 909.92 ± 0.61 | 905.55 ± 0.62 | 901.14 ± 0.63 | 897.17 ± 0.64 | 1.319 ± 0.032 | 1.205 ± 0.029 | 1.1 ± 0.027 | 1.011 ± 0.025 | 0.933 ± 0.023
x1 = 0.3999 | 939.8 ± 0.55 | 935.58 ± 0.56 | 931.38 ± 0.57 | 927.14 ± 0.58 | 923.28 ± 0.59 | 1.778 ± 0.042 | 1.577 ± 0.037 | 1.419 ± 0.034 | 1.29 ± 0.031 | 1.18 ± 0.029
x1 = 0.4998 | 960.97 ± 0.52 | 956.82 ± 0.53 | 952.74 ± 0.54 | 948.57 ± 0.55 | 944.75 ± 0.55 | 2.367 ± 0.054 | 2.079 ± 0.048 | 1.835 ± 0.043 | 1.646 ± 0.039 | 1.459 ± 0.035
x1 = 0.6001 | 977.35 ± 0.51 | 973.31 ± 0.51 | 969.31 ± 0.52 | 965.28 ± 0.53 | 961.59 ± 0.54 | 2.958 ± 0.067 | 2.556 ± 0.059 | 2.243 ± 0.052 | 1.99 ± 0.046 | 1.788 ± 0.042
x1 = 0.6998 | 991.84 ± 0.51 | 987.87 ± 0.51 | 983.92 ± 0.52 | 979.59 ± 0.52 | 976.07 ± 0.53 | 3.767 ± 0.085 | 3.228 ± 0.073 | 2.789 ± 0.064 | 2.437 ± 0.056 | 2.144 ± 0.05
x1 = 0.7999 | 1002.99 ± 0.52 | 998.97 ± 0.52 | 994.93 ± 0.52 | 990.88 ± 0.53 | 987.18 ± 0.53 | 4.783 ± 0.11 | 4.007 ± 0.09 | 3.418 ± 0.077 | 2.936 ± 0.067 | 2.551 ± 0.059
x1 = 0.8999 | 1013.19 ± 0.57 | 1009.18 ± 0.56 | 1005.13 ± 0.55 | 1001.1 ± 0.54 | 997.41 ± 0.54 | 6.06 ± 0.13 | 4.978 ± 0.11 | 4.153 ± 0.093 | 3.507 ± 0.079 | 2.995 ± 0.068
x1 = 1 | 1021.64 ± 0.61 | 1017.63 ± 0.6 | 1013.6 ± 0.59 | 1009.56 ± 0.58 | 1005.93 ± 0.57 | 7.701 ± 0.15 | 6.12 ± 0.13 | 5.022 ± 0.11 | 4.158 ± 0.094 | 3.518 ± 0.08

CO [methanol]
[1]
Conditions | mass density [kg/m3] | viscosity [mPa·s]
308.15 K | 776.92 ± 0.97 | 0.476 ± 0.014
313.15 K | 772.13 ± 0.98 | 0.445 ± 0.013
318.15 K | 767.31 ± 1 | 0.421 ± 0.013
323.15 K | 762.46 ± 1 | 0.395 ± 0.012
328.15 K | 757.85 ± 1 | 0.372 ± 0.012

CO [methanol] + Cc1cccc(O)c1
[2], x2 = 0
Conditions | mass density [kg/m3] | viscosity [mPa·s]
308.15 K | 776.92 ± 0.97 | 0.476 ± 0.014
313.15 K | 772.13 ± 0.98 | 0.445 ± 0.013
318.15 K | 767.31 ± 1 | 0.421 ± 0.013
323.15 K | 762.46 ± 1 | 0.395 ± 0.012
328.15 K | 757.85 ± 1 | 0.372 ± 0.012
